Results from patent US10774039B2, “Cyclopropene amino acids and methods” (United Kingdom Research and Innovation, priority 2014, dated 2020).

System: PylRS, PyltRNAUUU
Experiment: Time-dependent proteome incorporation of 3 via SORT-M in E. coli, detected with 4a
Type: cell-based
Conditions: AAA codon, detection with 4a
Description: Chemically competent DH10B cells were transformed with two plasmids: pBKwtPylRS necessary for expression of PylRS, and pBAD_wtT4LMbPylTUUU plasmid that is required for expression of PyltRNAUUU. pBAD_wtT4L_MbPylTUUU plasmid also contains the gene for expression of T4 lysozyme that is downstream of arabinose-inducible promoter. After transformation, cells were recovered in 1 ml SOB medium for one hour at 37° C. prior to inoculation in 10 ml LB-KT (LB media with 50 μg ml^−1 kanamycin, and 25 μg tetracycline). The culture was incubated overnight (37° C., 250 rpm, 12 h) and subsequently diluted to an OD600˜0.3 in 30 mL LB-KT1/2 (LB media with 25 μg ml^−1 kanamycin, and 12.5 μg ml^−1 tetracycline) supplemented with 3 at different concentrations, 0, 0.1, 0.5 mM. The cultures was incubated (37° C., 250 rpm) for 1 h, when OD600 reached approximately 0.6. 2 ml culture aliquot was collected in a separate tube for each of three cultures. This is the pre-induction culture (lane labelled as 1 in the gel image). Subsequently arabinose was added at a final concentration of 0.2% (v/v) to induce expression of T4 lysozyme and culture aliquots of 2 mL were collected every hour (lanes labelled as 2, 3 and 4 corresponding to 1, 2 and 3 h culture collection after induction). […] Samples were analysed by 4-12% SDS-PAGE and fluorescent images were acquired using Typhoon Trio phosphoimager (GE Life Sciences) […]

CC1=CC1COC(=O)NCCCC[C@H](N)C(=O)O (stereo partly drawn) [amino acid 3, N^ε-[((2-methylcycloprop-2-en-1-yl)methoxy)carbonyl]-L-lysine]
time to substantial labelling after amino acid addition: ≤ 1 h
